Source: paper PMC4579270, “Identification and Characterization of an Irreversible Inhibitor of CDK2” (Chemistry & Biology, 2015)
Read-outs that look alike come from different tables or passages of the source.

Key:
Src = Src (Homo sapiens, UniProt P12931); assay: Dundee kinase screen re-test (standard format and 4 hour pre-incubation); format: biochemical
Description: (§1) Prior to determining its cellular activity, we carried out a screen to assess its selectivity against a panel of 131 protein kinases under conditions that would not distinguish between a reversible or irreversible mode of action. […] These 13 kinases and 29 additional kinases, selected for their known sensitivity to other inhibitors within the purine series, were then tested in a modified screening format in which the assay was repeated following a 4-hr pre-incubation (Table S3B). […] However, conformational flexibility around the active site may promote such an interaction with a residue from another part of the structure ([Martin et al., 2012]).
(§2) Table S3, Related to Figure 4. NCL-0006300 protein kinase selectivity. […]
(§3) Dundee protein kinase screen (Bain et al., 2007). Values given are % activity remaining and are the average of duplicate measurements: 0-25% (red), 26-50% (yellow), 51-80% […]
(§4) (black) and above 81% (green). […]
(§5) (B) Selected kinases were re-tested in the Dundee kinase screen against NU6300 at a single concentration of 0.5 µM both in the standard assay format and following a 4 hour pre-incubation in the presence of NU6300. Kinases which have very low activity after the 4 hour incubation so that results might not be wholly reliable are boxed in salmon. Kinases where the activity after a 4 hour pre-incubation is < 50% that in the standard assay format are highlighted in red.

RSK1 = RSK1 (Homo sapiens, UniProt Q15418); assay: as above; format: biochemical; conditions: RSK1, 0.5µM
Chain of RSK1 (Q15418 whole entry): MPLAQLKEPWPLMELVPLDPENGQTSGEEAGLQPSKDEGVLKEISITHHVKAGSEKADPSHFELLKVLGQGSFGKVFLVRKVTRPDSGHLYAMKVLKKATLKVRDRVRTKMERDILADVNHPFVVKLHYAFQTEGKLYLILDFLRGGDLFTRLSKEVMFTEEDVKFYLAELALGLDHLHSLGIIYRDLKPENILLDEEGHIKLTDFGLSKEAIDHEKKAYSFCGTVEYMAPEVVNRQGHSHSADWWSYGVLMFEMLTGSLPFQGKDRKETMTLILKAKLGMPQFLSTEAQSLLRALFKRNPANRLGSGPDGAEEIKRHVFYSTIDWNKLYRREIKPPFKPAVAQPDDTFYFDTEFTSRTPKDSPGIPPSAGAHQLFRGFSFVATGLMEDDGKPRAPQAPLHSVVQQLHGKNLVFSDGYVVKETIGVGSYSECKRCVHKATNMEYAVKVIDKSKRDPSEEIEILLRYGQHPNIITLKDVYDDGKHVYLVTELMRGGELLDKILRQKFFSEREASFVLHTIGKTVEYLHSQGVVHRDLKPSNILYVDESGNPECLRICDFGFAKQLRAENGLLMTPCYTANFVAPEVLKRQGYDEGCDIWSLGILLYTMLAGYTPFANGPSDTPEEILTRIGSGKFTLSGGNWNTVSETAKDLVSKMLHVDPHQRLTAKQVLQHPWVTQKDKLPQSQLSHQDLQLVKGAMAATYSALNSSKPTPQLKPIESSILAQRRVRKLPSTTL
Description: as §1, §2, §3, §4, §5

SIK2 = SIK2 (Homo sapiens, UniProt Q9H0K1); assay: as above; format: biochemical; conditions: SIK2, 0.5µM
Chain of SIK2 (Q9H0K1 whole entry): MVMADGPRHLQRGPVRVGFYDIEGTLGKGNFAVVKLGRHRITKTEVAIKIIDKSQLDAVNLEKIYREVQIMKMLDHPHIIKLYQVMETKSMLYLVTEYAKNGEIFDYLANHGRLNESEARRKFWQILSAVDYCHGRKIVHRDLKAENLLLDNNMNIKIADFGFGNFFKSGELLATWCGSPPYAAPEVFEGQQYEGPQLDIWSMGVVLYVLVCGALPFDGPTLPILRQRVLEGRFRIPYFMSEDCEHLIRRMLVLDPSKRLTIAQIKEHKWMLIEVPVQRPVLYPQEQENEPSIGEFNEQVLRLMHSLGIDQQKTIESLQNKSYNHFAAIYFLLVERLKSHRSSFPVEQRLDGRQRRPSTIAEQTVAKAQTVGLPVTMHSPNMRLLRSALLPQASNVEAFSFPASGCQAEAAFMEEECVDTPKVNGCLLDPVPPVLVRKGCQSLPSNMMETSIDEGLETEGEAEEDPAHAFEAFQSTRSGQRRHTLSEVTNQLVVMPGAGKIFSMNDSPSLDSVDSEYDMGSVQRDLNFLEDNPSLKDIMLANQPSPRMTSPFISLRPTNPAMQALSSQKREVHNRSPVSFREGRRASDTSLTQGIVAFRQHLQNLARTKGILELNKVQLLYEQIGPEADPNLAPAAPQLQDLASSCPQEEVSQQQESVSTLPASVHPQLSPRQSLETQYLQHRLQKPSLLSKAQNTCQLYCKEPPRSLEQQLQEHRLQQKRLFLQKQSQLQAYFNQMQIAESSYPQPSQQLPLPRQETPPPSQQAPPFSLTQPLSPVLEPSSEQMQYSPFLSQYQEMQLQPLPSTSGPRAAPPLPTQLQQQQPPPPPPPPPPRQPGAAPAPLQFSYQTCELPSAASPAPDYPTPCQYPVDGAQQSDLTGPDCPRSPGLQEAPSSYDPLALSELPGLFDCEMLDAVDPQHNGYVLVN
Description: as §1, §2, §3, §4, §5

ROCK 2 = ROCK 2 (Homo sapiens, UniProt O75116); assay: as above; format: biochemical; conditions: ROCK 2, 0.5µM
Chain of ROCK 2 (O75116 whole entry): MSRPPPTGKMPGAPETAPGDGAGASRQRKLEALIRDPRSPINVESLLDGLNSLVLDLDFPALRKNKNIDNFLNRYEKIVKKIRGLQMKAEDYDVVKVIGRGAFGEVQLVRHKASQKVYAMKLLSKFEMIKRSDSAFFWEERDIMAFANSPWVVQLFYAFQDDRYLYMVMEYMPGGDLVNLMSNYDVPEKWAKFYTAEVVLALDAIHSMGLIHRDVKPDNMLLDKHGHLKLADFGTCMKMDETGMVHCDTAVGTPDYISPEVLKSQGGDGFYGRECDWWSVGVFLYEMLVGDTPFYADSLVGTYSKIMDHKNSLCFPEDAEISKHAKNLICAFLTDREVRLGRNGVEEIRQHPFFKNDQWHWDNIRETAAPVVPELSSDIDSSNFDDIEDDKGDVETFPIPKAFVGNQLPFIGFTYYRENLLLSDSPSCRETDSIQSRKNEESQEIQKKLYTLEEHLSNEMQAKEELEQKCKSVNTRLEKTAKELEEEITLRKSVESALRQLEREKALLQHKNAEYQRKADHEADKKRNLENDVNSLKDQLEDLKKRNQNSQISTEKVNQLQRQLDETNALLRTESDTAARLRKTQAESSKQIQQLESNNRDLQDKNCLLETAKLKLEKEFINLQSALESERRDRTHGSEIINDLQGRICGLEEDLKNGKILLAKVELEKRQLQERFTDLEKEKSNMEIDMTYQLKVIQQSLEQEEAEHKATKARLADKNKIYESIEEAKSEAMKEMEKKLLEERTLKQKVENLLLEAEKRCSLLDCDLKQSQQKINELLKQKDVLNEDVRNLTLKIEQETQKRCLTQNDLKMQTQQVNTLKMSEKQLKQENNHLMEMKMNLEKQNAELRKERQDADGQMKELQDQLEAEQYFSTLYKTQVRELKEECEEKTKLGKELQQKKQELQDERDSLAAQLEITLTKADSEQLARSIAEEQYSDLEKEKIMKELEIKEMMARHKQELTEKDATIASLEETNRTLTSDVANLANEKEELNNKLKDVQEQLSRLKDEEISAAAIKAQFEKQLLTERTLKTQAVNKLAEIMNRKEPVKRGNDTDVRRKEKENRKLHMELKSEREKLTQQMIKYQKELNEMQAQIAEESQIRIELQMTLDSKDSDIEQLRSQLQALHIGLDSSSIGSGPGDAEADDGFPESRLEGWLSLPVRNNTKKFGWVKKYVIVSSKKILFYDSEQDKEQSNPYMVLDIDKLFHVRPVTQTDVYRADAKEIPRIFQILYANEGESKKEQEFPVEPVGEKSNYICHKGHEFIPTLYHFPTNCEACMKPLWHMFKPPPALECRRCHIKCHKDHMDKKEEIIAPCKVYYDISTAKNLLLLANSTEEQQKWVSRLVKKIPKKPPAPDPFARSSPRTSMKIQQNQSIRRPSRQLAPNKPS
Description: as §1, §2, §3, §4, §5

TAK1 = biological target: T1, TAK1 (Homo sapiens, UniProt O43318); assay: as above; format: biochemical; conditions: TAK1, 0.5µM
T1 sequence (O43318 1-303 limits assumed): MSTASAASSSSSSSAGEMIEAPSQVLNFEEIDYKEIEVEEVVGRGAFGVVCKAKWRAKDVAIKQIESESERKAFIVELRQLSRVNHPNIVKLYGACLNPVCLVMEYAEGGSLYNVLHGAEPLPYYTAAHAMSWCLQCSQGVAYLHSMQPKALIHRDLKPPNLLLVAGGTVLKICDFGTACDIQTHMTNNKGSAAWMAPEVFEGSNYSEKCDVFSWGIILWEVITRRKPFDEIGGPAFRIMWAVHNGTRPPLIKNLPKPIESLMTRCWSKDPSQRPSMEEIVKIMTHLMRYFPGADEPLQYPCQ
Description: as §1, §2, §3, §4, §5

[1] = test system: phosphorylation of Rb at Thr821 in SKUT-1B cells; assay: Inhibition of Rb phosphorylation in cells (western blot); format: cell-based; conditions: Homo sapiens, Skut1B, 1 hr exposure
Description: The cellular potency of NU6300 was examined by measuring the inhibition of Rb phosphorylation following exposure of SKUT-1B cells to the inhibitor for 1 hr. Pre-incubation with 50 μM NU6300 inhibited phosphorylation of Rb at […], a known CDK2 phosphorylation site, by 43%. […] This difference just reached statistical significance (p = 0.04). […] Representative of three different experiments. […] Protein expression levels of phospho-Rb ([…]) were normalized to the levels of total Rb in respective samples using densitometry. Relative protein expression levels are presented as percentage of inhibition of phosphorylation of Rb ([…]) compared with the control cells for each time point. Error bars represent the mean value and SD from three independent experiments. Statistical analysis was performed using the unpaired Student's t test, one-tailed. Western blot analysis was carried out as described previously ([Thomas et al., 2011]) using rabbit anti-[…] phospho-Rb antibody (Invitrogen) or mouse antihuman Rb antibody (BD Pharmingen) to detect phosphorylated and total retinoblastoma protein, respectively. Sample preparation is described in Supplemental Experimental Procedures. page 14: formate) before cryo-coolling. Data processing was carried out using programs of the CCP4 suite (CCP4, 1994). The structure of NU6300 bound to CDK2/cyclin A was solved by molecular replacement using Phaser (McCoy et al., 2007), using as the search model a high-resolution structure of a recruitment peptide bound to CDK2/cyclin A ((Cheng et al., 2006) PDB code 2CCH). A single clear solution was found with an inhibitor bound to each of the two copies of the binary complex in the asymmetric unit. This solution was then subjected to rigid body refinement in REFMAC (Murshudov et al., 1997), to reveal unambiguous electron density in the CDK2 ATP-binding site, consistent with the expected shape of the inhibitor. A model of NU6300 was created using Coot (Emsley et al., 2010). The inhibitor atoms were kept in all subsequent models during refinement carried out by additional rounds of manual rebuilding in Coot and restrained refinement in REFMAC5, including TLS refinement. Towards the end of refinement, waters were added using the Coot water picking utility and manually verified. Western blotting SKUT-1B cells (ATCC, Manassas, USA) were grown in MEM medium supplemented with non-essential amino acids, L-Glutamine, sodium pyruvate and 10% (v/v) foetal calf serum (Sigma, UK). […] Cells were harvested at different time points after the washout and lysed by adding PhosphoSafe extraction reagent (Merck, UK) containing protease inhibitor cocktail (Roche, UK) at the manufacturer's recommended dilution. The harvested cell suspension was placed in an eppendorf tube on ice, centrifuged at 13,000x g for 5 min, and the supernatant (cell lysate) removed for analysis. Subsequent western blot analysis was carried out as described in (Thomas et al., 2011) using rabbit anti-[…] phospho-Rb antibody (Invitrogen, Paisley, UK Cat No. 44-[…]) or mouse anti-human Rb antibody (BD Pharmingen, Oxford, UK Cat No. 554136) to detect phosphorylated and total retinoblastoma protein, respectively.

CDK2 = CDK2 (Homo sapiens, UniProt P24941); assay: CDK2 kinase inhibition assay; format: biochemical; conditions: read-out: CDK2 median inhibitory concentration [IC50]
Description: CDK2/cyclin A kinase assays were carried out using a method modified from [Brown et al. (1999)] or by using the ADP-Glo assay (Promega) essentially as described by the manufacturers. A full description of the assay formats is provided in the Supplemental Experimental Procedures.

[2] = 4hr RT preincubation, read-out: %Remaining activity at 0.5µM NU6300 - 4hr RT preincubation
[3] = usual format, read-out: %Remaining activity at 0.5µM NU6300 - Usual assay format

Chain of Src (P12931 whole entry): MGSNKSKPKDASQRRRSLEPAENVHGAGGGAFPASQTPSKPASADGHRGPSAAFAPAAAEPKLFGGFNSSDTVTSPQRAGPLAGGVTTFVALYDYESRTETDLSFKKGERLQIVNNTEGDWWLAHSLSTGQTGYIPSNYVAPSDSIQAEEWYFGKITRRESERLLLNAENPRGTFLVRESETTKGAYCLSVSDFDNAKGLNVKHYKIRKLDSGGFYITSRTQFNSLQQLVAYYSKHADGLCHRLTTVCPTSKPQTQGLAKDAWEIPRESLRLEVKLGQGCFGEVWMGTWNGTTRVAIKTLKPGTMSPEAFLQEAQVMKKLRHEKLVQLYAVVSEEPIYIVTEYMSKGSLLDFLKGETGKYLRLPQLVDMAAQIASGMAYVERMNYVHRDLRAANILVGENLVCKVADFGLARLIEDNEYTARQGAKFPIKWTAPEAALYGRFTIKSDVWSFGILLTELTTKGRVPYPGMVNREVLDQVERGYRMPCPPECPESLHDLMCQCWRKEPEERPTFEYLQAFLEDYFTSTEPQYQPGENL

Row | Structure (SMILES) | remaining activity at 0.5 µM (Src; [2]) | remaining activity at 0.5 µM (Src; [3]) | remaining activity at 0.5 µM (RSK1; [2]) | remaining activity at 0.5 µM (RSK1; [3]) | remaining activity at 0.5 µM (SIK2; [2]) | remaining activity at 0.5 µM (SIK2; [3]) | remaining activity at 0.5 µM (ROCK 2; [2]) | remaining activity at 0.5 µM (ROCK 2; [3]) | remaining activity at 0.5 µM (TAK1; [2]) | remaining activity at 0.5 µM (TAK1; [3]) | inhibition at 50 µM ([1]; before washout, read-out: inhibition of phosphorylation of Rb at Thr821) | inhibition at 50 µM ([1]; then 1-hr washout in drug-free media, read-out: inhibition of phosphorylation of Rb at Thr821 after washout) | IC50 (CDK2)
1 | C=CS(=O)(=O)c1ccc(Nc2nc(OCC3CCCCC3)c3nc[nH]c3n2)cc1 [NU6300, 6-(cyclohexylmethoxy)-N-(4-(vinylsulfonyl)phenyl)-9H-purin-2-amine] | 54% | 48% | 131% | 83% | 69% | 39% | 47% | 46% | 24% | 19% | 43% | 33% | 
2 | CCS(=O)(=O)c1ccc(Nc2nc(OCC3CCCCC3)c3nc[nH]c3n2)cc1 [NU6310, 6-(cyclohexylmethoxy)-N-(4-(ethylsulfonyl)phenyl)-9H-purin-2-amine] |  |  |  |  |  |  |  |  |  |  |  |  | 160 nM
